Reference: patent US6812248B2, “Prevention and treatment of degenerative diseases by glutathione and phase II detoxification enzymes” (John Hopkins University School of Medicine, priority 2000, dated 2004)
Read-outs that look alike come from different tables or passages of the source.

Legend:
[1] = test system: motor neurons; conditions: earlier use of the culture system as preclinical screen; cited from earlier work
[2] = test system: motor neurons; conditions: spinal cord explant; sulforaphane 0.5, 5, 10 μM for 3 weeks; FIG. 1
Method: The general experimental procedure of THA-induced cytotoxicity was previously described (Ho T et al., Experimental Neurology, 161, 664-675, 2000), the contents of which are incorporated herein by reference. Rodent spinal cord tissue slices were treated with THA and/or sulforaphane. Sulforaphane was administered at concentrations at 0, 0.5 μM, 5 μM and 10 μM for 3 weeks, changing medium every three days. At the end of the experiment, each tissue slice was fixed and stained, and remaining neurons were counted.

[3] = test system: SOD-G93 mice; conditions: oral daily gavage from weaning; expected result
[4] = test system: quinone reductase (QR)
Method: (§1) Mouse spinal cord cultures were prepared and cultured according to Rothstein, J D and Kuncl, R W. J. Neural Chem. 65:643-651 (1995). Cultures were treated with sulforaphane for 24 hours at concentrations of 0,1 μm, 5 μm, 10 μm and 20 μm.
(§2) Mouse spinal cord cultures were prepared and cultured as above. Cultures were treated with sulforaphane for 2 weeks, twice a week, at concentrations of 1 μm, 5 μm and 10 μm.

[5] = test system: glutathione transferase (GST)
Method: as §1, §2

[6] = test system: brain glutathione; assay: Blood-brain barrier permeability / whole brain GSH levels after daily oral gavage; conditions: one week, whole brain homogenate, FIG. 5
[7] = test system: glutathione (GSH); conditions: 1, 5 or 10 μM for 12 h, 24 h or 48 h; no THA; FIG. 2
Method: Rat spinal cord slices were similarly prepared and cultured as in the above example but without THA treatment. The tissues were cultured for one or two weeks and then incubated with 1 μM, 5, μM, or 10 μM, of sulphoraphane for 12 h, 24 h or 48 h. The tissue slices were then harvested and sonicated and assayed for total GSH content (Richie J P et al., Clinical Chemistry, 42, 64-70, 1996, the contents of which are incorporated herein by reference).

[8] = treated 2 weeks, twice a week, at 1, 5, 10 μm, FIG. 4
[9] = treated 24 hours at 1, 5, 10, 20 μm, FIG. 3

Molecule: insulin growth factor (IGF-1): insulin growth factor, potential neuroprotective agent
- Protection against chronic motor neuron degeneration [1]: protective

Molecule: C[S+]([O-])CCCCN=C=S (stereo not shown) [sulforaphane]
- Prevention of THA-induced motor neuron death [2]: significantly prevented THA-induced motor neuron death
- Survival of the animals compared to control [3]: will improve the survival
- Induction of QR activity [4, 8]: induced
- Induction of QR activity [4, 9]: induced
- Induction of GST activity [5, 8]: induced
- Induction of GST activity [5, 9]: induced
- Brain GSH levels [6]: elevate GSH levels in the brain
- Rise of GSH level in treated spinal cord tissue [7]: ≤ 160%

Molecule: Nc1nc2ccc(OC(F)(F)F)cc2s1 [riluzole, reference compound]
- Protection against chronic motor neuron degeneration [1]: protective

Molecule: NCC1(CC(=O)O)CCCCC1 [gabapentin, reference compound]
- Protection against chronic motor neuron degeneration [1]: protective

B1: ciliary neurotrophic factor (CNTF): ciliary neurotrophic factor (protein, UniProt P26441 1-200, looked up)
Ciliary neurotrophic factor: MAFTEHSPLTPHRRDLCSRSIWLARKIRSDLTALTESYVKHQGLNKNINLDSADGMPVASTDQWSELTEAERLQENLQAYRTFHVLLARLLEDQQVHFTPTEGDFHQAIHTLLLQVAAFAYQIEELMILLEYKIPRNEADGMPINVGDGGLFEKKLWGLKVLQELSQWTVRSIHDLRFISSHQTGIPARGSHYIANNKKM
- Protection against chronic motor neuron degeneration [1]: failed to protect

B2: brain-derived neurotrophic factor (BDNF): brain-derived neurotrophic factor (protein, UniProt P23560 129-247, looked up)
Neurotrophic factor BDNF: HSDPARRGELSVCDSISEWVTAADKKTAVDMSGGTVTVLEKVPVSKGQLKQYFYETKCNPMGYTKEGCRGIDKRHWNSQCRTTQSYVRALTMDSKKRIGWRFIRIDTSCVCTLTIKRGR
modifications: Neurotrophic factor BDNF
- Protection against chronic motor neuron degeneration [1]: failed to protect
